Laboratory results as given in PubChem BioAssay AID2060490 (Molecular Pharmacology Branch, DTP, NCI, 2025).

System: 885512-296-R-J2-PDC complex spheroid viability
Experiment: Anticancer human tumor 885512-296-R-J2-PDC patient-derived breast carcinoma cell line growth inhibition [GQUAD]
Settings: for IC50: curve of first compound; for viability, T/C: stronger effect = lower value
Outline: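 Multi-cell-type spheroids of tumor cells with HUVEC and mesenchymal stem cells, treated with drug combinations. Concentrations descend in half-log steps from near clinical Cmax, or from 10 microM where Cmax is unknown; viability read-out.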

[1] = second compound 0.0316 µM, first compound 0.0316 µM
[2] = second compound 0.0316 µM, first compound 0.316 µM
[3] = second compound 0.1 µM, first compound 0.0316 µM
[4] = second compound 0.1 µM, first compound 0.316 µM
[5] = second compound 0.316 µM, first compound 0.0316 µM
[6] = second compound 0.316 µM, first compound 0.316 µM
[7] = second compound 1 µM, first compound 0.0316 µM
[8] = second compound 1 µM, first compound 0.316 µM
[9] = second compound 3.16 µM, first compound 0.0316 µM
[10] = second compound 3.16 µM, first compound 0.316 µM
[11] = second compound 10 µM, first compound 0.0316 µM
[12] = second compound 10 µM, first compound 0.316 µM
[13] = second compound 0.0316 µM, first compound 0.1 µM
[14] = second compound 0.0316 µM, first compound 1 µM
[15] = second compound 0.0316 µM, first compound 3.16 µM
[16] = second compound 0.0316 µM, first compound 10 µM
[17] = second compound 0.1 µM, first compound 0.1 µM
[18] = second compound 0.1 µM, first compound 1 µM
[19] = second compound 0.1 µM, first compound 3.16 µM
[20] = second compound 0.1 µM, first compound 10 µM
[21] = second compound 0.316 µM, first compound 0.1 µM
[22] = second compound 0.316 µM, first compound 1 µM
[23] = second compound 0.316 µM, first compound 3.16 µM
[24] = second compound 0.316 µM, first compound 10 µM
[25] = second compound 1 µM, first compound 0.1 µM
[26] = second compound 1 µM, first compound 1 µM
[27] = second compound 1 µM, first compound 3.16 µM
[28] = second compound 1 µM, first compound 10 µM
[29] = second compound 3.16 µM, first compound 0.1 µM
[30] = second compound 3.16 µM, first compound 1 µM
[31] = second compound 3.16 µM, first compound 3.16 µM
[32] = second compound 3.16 µM, first compound 10 µM
[33] = second compound 10 µM, first compound 0.1 µM
[34] = second compound 10 µM, first compound 1 µM
[35] = second compound 10 µM, first compound 3.16 µM
[36] = second compound 10 µM, first compound 10 µM
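Further: spheroids exposed to the compounds for one week.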
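Wherever viability, T/C is given: percent of tumor spheroid viability relative to DMSO vehicle control wells.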

## CCc1c2c(nc3ccc(O)cc13)-c1cc3c(c(=O)n1C2)COC(=O)[C@]3(O)CC + Cc1[nH]c2ccc(F)cc2c1-c1nc2c3cccnc3c3ncccc3c2[nH]1
Second compound 0.0316 µM
  IC50: < 0.999 nM
Second compound 0.1 µM
  IC50: < 0.999 nM
Second compound 0.316 µM
  IC50: < 0.999 nM
Second compound 1 µM
  IC50: < 0.999 nM
Second compound 3.16 µM
  IC50: < 0.999 nM
Second compound 10 µM
  IC50: < 0.999 nM
Second compound 0.0316 µM, first compound 0.000999 µM
  viability, T/C: 26.3%
Second compound 0.0316 µM, first compound 0.00316 µM
  viability, T/C: 9.48%
Second compound 0.0316 µM, first compound 0.00999 µM
  viability, T/C: 6.06%
[1]
  viability, T/C: 3.24%
Second compound 0.0316 µM, first compound 0.0999 µM
  viability, T/C: 2.09%
[2]
  viability, T/C: 1.42%
Second compound 0.1 µM, first compound 0.000999 µM
  viability, T/C: 25.8%
Second compound 0.1 µM, first compound 0.00316 µM
  viability, T/C: 9.37%
Second compound 0.1 µM, first compound 0.00999 µM
  viability, T/C: 5.76%
[3]
  viability, T/C: 2.48%
Second compound 0.1 µM, first compound 0.0999 µM
  viability, T/C: 1.88%
[4]
  viability, T/C: 1.48%
Second compound 0.316 µM, first compound 0.000999 µM
  viability, T/C: 28.2%
Second compound 0.316 µM, first compound 0.00316 µM
  viability, T/C: 9.08%
Second compound 0.316 µM, first compound 0.00999 µM
  viability, T/C: 4.66%
[5]
  viability, T/C: 2.27%
Second compound 0.316 µM, first compound 0.0999 µM
  viability, T/C: 1.56%
[6]
  viability, T/C: 1.34%
Second compound 1 µM, first compound 0.000999 µM
  viability, T/C: 26%
Second compound 1 µM, first compound 0.00316 µM
  viability, T/C: 8.76%
Second compound 1 µM, first compound 0.00999 µM
  viability, T/C: 2.75%
[7]
  viability, T/C: 1.69%
Second compound 1 µM, first compound 0.0999 µM
  viability, T/C: 1.68%
[8]
  viability, T/C: 1.43%
Second compound 3.16 µM, first compound 0.000999 µM
  viability, T/C: 3.36%
Second compound 3.16 µM, first compound 0.00316 µM
  viability, T/C: 2.2%
Second compound 3.16 µM, first compound 0.00999 µM
  viability, T/C: 2.07%
[9]
  viability, T/C: 1.56%
Second compound 3.16 µM, first compound 0.0999 µM
  viability, T/C: 1.71%
[10]
  viability, T/C: 2.07%
Second compound 10 µM, first compound 0.000999 µM
  viability, T/C: 1.69%
Second compound 10 µM, first compound 0.00316 µM
  viability, T/C: 1.34%
Second compound 10 µM, first compound 0.00999 µM
  viability, T/C: 1.31%
[11]
  viability, T/C: 1.08%
Second compound 10 µM, first compound 0.0999 µM
  viability, T/C: 0.89%
[12]
  viability, T/C: 1.57%

## CC(=O)O[C@H]1C(=O)[C@@]2(C)[C@H]([C@H](OC(=O)c3ccccc3)[C@]3(O)C[C@H](OC(=O)[C@H](O)[C@@H](NC(=O)c4ccccc4)c4ccccc4)C(C)=C1C3(C)C)[C@]1(OC(C)=O)CO[C@@H]1C[C@@H]2O + CN(C)c1ccc(Nc2c3ccc(NC(=O)CCN4CCCC4)cc3nc3cc(NC(=O)CCN4CCCC4)ccc23)cc1
Second compound 0.0316 µM
  IC50: < 31.6 nM
Second compound 0.1 µM
  IC50: < 31.6 nM
Second compound 0.316 µM
  IC50: < 31.6 nM
Second compound 1 µM
  IC50: < 31.6 nM
Second compound 3.16 µM
  IC50: < 31.6 nM
Second compound 10 µM
  IC50: < 31.6 nM
[1]
  viability, T/C: 7.7%
[13]
  viability, T/C: 3.78%
[2]
  viability, T/C: 3.71%
[14]
  viability, T/C: 2.86%
[15]
  viability, T/C: 3.18%
[16]
  viability, T/C: 3.65%
[3]
  viability, T/C: 6.67%
[17]
  viability, T/C: 3.1%
[4]
  viability, T/C: 3.16%
[18]
  viability, T/C: 4.15%
[19]
  viability, T/C: 3.73%
[20]
  viability, T/C: 3.82%
[5]
  viability, T/C: 8.31%
[21]
  viability, T/C: 4.86%
[6]
  viability, T/C: 3.98%
[22]
  viability, T/C: 3.68%
[23]
  viability, T/C: 3.77%
[24]
  viability, T/C: 3.72%
[7]
  viability, T/C: 10.4%
[25]
  viability, T/C: 4.09%
[8]
  viability, T/C: 3.56%
[26]
  viability, T/C: 3.3%
[27]
  viability, T/C: 3.31%
[28]
  viability, T/C: 3.95%
[9]
  viability, T/C: 5.71%
[29]
  viability, T/C: 3.67%
[10]
  viability, T/C: 3.71%
[30]
  viability, T/C: 3.88%
[31]
  viability, T/C: 5.32%
[32]
  viability, T/C: 5.08%
[11]
  viability, T/C: 6.02%
[33]
  viability, T/C: 4.19%
[12]
  viability, T/C: 2.67%
[34]
  viability, T/C: 4.93%
[35]
  viability, T/C: 3.01%
[36]
  viability, T/C: 3.27%

## C=CC(=O)N1CCN(c2nc(=O)n(-c3c(C)ccnc3C(C)C)c3nc(-c4c(O)cccc4F)c(F)cc23)C(C)C1 (stereo not drawn) + Cc1[nH]c2ccc(F)cc2c1-c1nc2c3cccnc3c3ncccc3c2[nH]1
Second compound 0.0316 µM
  IC50: > 10000 nM
Second compound 0.1 µM
  IC50: > 10000 nM
Second compound 0.316 µM
  IC50: > 10000 nM
Second compound 1 µM
  IC50: > 10000 nM
Second compound 3.16 µM
  IC50: < 31.6 nM
Second compound 10 µM
  IC50: < 31.6 nM
[1]
  viability, T/C: 122%
[13]
  viability, T/C: 91%
[2]
  viability, T/C: 84.7%
[14]
  viability, T/C: 106%
[15]
  viability, T/C: 111%
[16]
  viability, T/C: 96.3%
[3]
  viability, T/C: 118%
[17]
  viability, T/C: 96.2%
[4]
  viability, T/C: 97.4%
[18]
  viability, T/C: 102%
[19]
  viability, T/C: 103%
[20]
  viability, T/C: 93.4%
[5]
  viability, T/C: 92.9%
[21]
  viability, T/C: 103%
[6]
  viability, T/C: 102%
[22]
  viability, T/C: 102%
[23]
  viability, T/C: 91.9%
[24]
  viability, T/C: 88.8%
[7]
  viability, T/C: 78.9%
[25]
  viability, T/C: 79.1%
[8]
  viability, T/C: 95.7%
[26]
  viability, T/C: 90%
[27]
  viability, T/C: 77.3%
[28]
  viability, T/C: 72.1%
[9]
  viability, T/C: 30.6%
[29]
  viability, T/C: 22.9%
[10]
  viability, T/C: 21.2%
[30]
  viability, T/C: 31.2%
[31]
  viability, T/C: 32.9%
[32]
  viability, T/C: 27.2%
[11]
  viability, T/C: 1.88%
[33]
  viability, T/C: 1.76%
[12]
  viability, T/C: 2.07%
[34]
  viability, T/C: 3.47%
[35]
  viability, T/C: 6.47%
[36]
  viability, T/C: 3.97%

## COc1ccc([C@@H](O)c2cc(-c3ncnc4cc(N5CCOCC5)ccc34)c(F)cc2Cl)nn1 + Cc1[nH]c2ccc(F)cc2c1-c1nc2c3cccnc3c3ncccc3c2[nH]1
Second compound 0.0316 µM
  IC50: > 10000 nM
Second compound 0.1 µM
  IC50: > 10000 nM
Second compound 0.316 µM
  IC50: > 10000 nM
Second compound 1 µM
  IC50: 4340 nM
Second compound 3.16 µM
  IC50: < 31.6 nM
Second compound 10 µM
  IC50: < 31.6 nM
[1]
  viability, T/C: 114%
[13]
  viability, T/C: 92.6%
[2]
  viability, T/C: 95.5%
[14]
  viability, T/C: 100%
[15]
  viability, T/C: 94.2%
[16]
  viability, T/C: 58.7%
[3]
  viability, T/C: 121%
[17]
  viability, T/C: 98%
[4]
  viability, T/C: 104%
[18]
  viability, T/C: 94%
[19]
  viability, T/C: 83.7%
[20]
  viability, T/C: 51.7%
[5]
  viability, T/C: 103%
[21]
  viability, T/C: 96.7%
[6]
  viability, T/C: 85.9%
[22]
  viability, T/C: 94.4%
[23]
  viability, T/C: 73.6%
[24]
  viability, T/C: 57.5%
[7]
  viability, T/C: 73.7%
[25]
  viability, T/C: 85.9%
[8]
  viability, T/C: 67.6%
[26]
  viability, T/C: 68.7%
[27]
  viability, T/C: 59.2%
[28]
  viability, T/C: 30%
[9]
  viability, T/C: 11.3%
[29]
  viability, T/C: 6.47%
[10]
  viability, T/C: 12.8%
[30]
  viability, T/C: 5.75%
[31]
  viability, T/C: 10.1%
[32]
  viability, T/C: 3.06%
[11]
  viability, T/C: 1.38%
[33]
  viability, T/C: 2.32%
[12]
  viability, T/C: 1.63%
[34]
  viability, T/C: 1.42%
[35]
  viability, T/C: 1.48%
[36]
  viability, T/C: 1.5%
